# Results taken from PubChem BioAssay AID1996.
# Details: buffer; pH 7.4; 200.0 µM
row,SMILES,solubility kinetic [µg/mL]
1,CCCc1c(O)nc(SCC(=O)O)[nH]c1=O,> 36.6
2,Cc1ccc(O)c(NC(=S)NC(=O)/C=C/c2ccccc2)c1,< 0.3
3,COc1ccc(OC)c(CNc2c(C=O)c(=O)[nH]c3ccccc23)c1,< 0.4
4,CCn1cc(C=C2C(=O)NC(=O)NC2=O)c2ccccc21,1.8
5,CNC(=O)COC(=O)/C=C/c1ccco1,> 31.4
6,O=C(Nc1ccc(F)c(Cl)c1)c1nsc(Cl)c1Cl,0.7
7,CCNC(=O)CC1C(=O)N(c2ccccc2)C(=O)N1CCOC (stereo not given),> 47.9
8,COc1ccc(NS(=O)(=O)c2cn(C)cn2)cc1Cl,17
9,O=C(Nc1ccc2c(c1)OCO2)C(=O)c1c[nH]c2ccccc12,0.7
10,CNC(=O)NC(O)C(Cl)(Cl)Cl (stereo not given),33.1
11,O=C(NC(=S)Nc1ccc(Br)c(Cl)c1)C1CC1,< 0.4
12,CN(C)c1ccc(C(=O)NCCCSc2ccccc2)cc1,3.9
13,OC(CN1CCOCC1)Cn1c2ccccc2c2ccccc21 (stereo not given),> 46.6
14,CC(NC(=O)c1ccccc1C(=O)O)c1ccc(-n2ccnc2)cc1 (stereo not given),> 50.3
15,Cc1cc(SCNC(=O)c2ccccc2)nc(C(C)C)n1,> 45.2
16,O=C1CC(N2CCN(S(=O)(=O)c3ccccc3F)CC2)C(=O)N1c1ccc(F)cc1F (stereo not given),> 68
17,CC(=O)c1sc(C(C)(C)C)cc1NC(=O)CCC(=O)O,> 44.6
18,O=C(CSc1ncccn1)Nc1cccc2ccccc12,> 44.3
19,COc1ccc(NC(=O)CN(C)C(=O)Cc2ccc3c(c2)CCC3)cc1,12.2
20,CCOc1ccccc1OCCC(=O)OCC(=O)c1ccc[nH]1,21.8

row,SMILES,solubility kinetic [µg/mL]
1,COc1cc2c(cc1NC(=O)CCC(=O)O)oc1ccccc12,46.7
2,CC(=O)N1CCn2c3c(c4cc(C)ccc42)CCCC31 (stereo not given),38.6
3,Cc1ccc(Nc2c([N+](=O)[O-])c(=O)oc3ccccc23)cc1,5.8
4,COc1ccc(-n2c(-c3ccc(C)cc3)nc3ccccc3c2=O)cc1,< 0.4
5,Cc1ccccc1NC(=S)NCc1ccc(F)cc1,> 41.2
6,CCc1c(C(=O)OCc2ccccc2)[nH]c(C)c1C,1.3
7,CC(C)(C)NC(=O)COC(=O)CCC(=O)c1ccc(F)cc1,> 46.4
8,COc1ccc(C(=O)Nc2cc3c4c(c2)CC(=O)N4CCC3)cc1,> 48.4
9,O=C(/C=C/c1ccc(F)cc1)N1CCCc2ccccc21,18.5
10,O=C1CCC(C(=O)NCc2ccc3c(c2)OCO3)N1 (stereo not given),> 39.3
11,Clc1cccc(CN2CCc3c([nH]c4ccccc34)C2)c1,8.2
12,Cc1nc2ccc(NC(=O)Cc3cccc(F)c3)cc2s1,11.5
13,Brc1c(-c2ccc3c(c2)OCO3)nc2ncccn12,38.8
14,Cc1ccc(OCC(=O)NCCCNC(=O)c2ccncc2)cc1,> 49.1
15,NC(=O)c1ccsc1NC(=O)CSc1nncs1,> 45.1
16,O=C(Nc1ccc2ccccc2c1)c1ccc(Cl)cc1,< 0.6
17,CCOC(=O)c1ccc(S(=O)(=O)NCCNCc2ccccc2)cc1.Cl,> 59.8
18,Cc1ccc(S(=O)(=O)N(C)CC(=O)NCC(=O)Nc2ccc(F)c(F)c2F)cc1,6.4
19,CCNc1nc(OC)nc(SCC(=O)Nc2ccccc2)n1,> 47.9
20,CCC(=O)Nc1ccc(C(=O)OCc2ccccc2)cc1,8.6

row,SMILES,solubility kinetic [µg/mL]
1,C[N+]1(CCOC(=O)C2(c3ccccc3)CCCC2)CCCCC1,> 47.5
2,Cc1[nH]ccc(=O)c1OCC(=O)O,> 27.5
3,Cc1cc(C)n2nc(C(=O)NNC(=O)c3ccccc3)nc2n1,> 46.5
4,O=C(COC(=O)/C=C/c1ccccc1)NC1CCCCCC1,10.4
5,Cc1cc(C)[n+](-c2ccc(Oc3ccccc3)c(S(=O)(=O)[O-])c2)[nH]1,> 51.7
6,O=C1/C(=C\c2ccc(O)cc2)SC(=S)N1Cc1ccccc1,< 0.7
7,CCc1noc(C)c1C(=O)OCC(=O)Nc1cccc(C)c1,20.4
8,CC(=O)Nc1cccc(NC=C(C#N)C#N)c1,11.7
9,C/C(=N\N1CCN(C)CC1)c1ccc(OC(F)F)cc1,> 42.5
10,CC1(C)CSC(=NCCc2ccccc2)N1,> 35.2
11,N#Cc1ccc(OCc2noc(-c3ccsc3)n2)cc1,0.3
12,COc1ccc2c(CCNC(N)=S)c[nH]c2c1,17.7
13,COc1ccc(S(=O)(=O)N2CCN(C(=O)c3cc4c(s3)CCC4)CC2)cc1,7.7
14,COc1ccc(NC(=O)Nc2ccc(Br)c(C)c2)cc1,< 0.4
15,NC(=O)c1ccc(NC(=O)c2cccc3c2OCCCO3)cc1,14.5
16,O=C(CSc1cc(Cl)ccc1Cl)NC1CC1,37.7
17,COC(=O)c1ccc(NC(=O)CCCN2C(=O)NC(C)(C)C2=O)cc1,> 52.1
18,CCc1ccccc1N1C(=O)C(Cl)=C(N2CCOCC2)C1=O,45.8
19,CSCCC(NC(=O)c1ccccc1)C(=O)N1CCN(C(=O)c2ccccc2)CC1 (stereo not given),> 63.8
20,COc1ccc2c(c1)c(C(=O)CN1CCc3ccccc3C1)c(C)n2C,29.6
